Source: US10407409B2, “6-(5-hydroxy-1H-pyrazol-1-yl)nicotinamide inhibitors of PHD” (Takeda Pharmaceutical Company Limited, priority 2013, dated 2019)

Key:
[1] = tested on: HIF1a protein in H9c2 rat cardiomyocytes; test: Cell-based HIF-alpha stabilization assay (inhibition of PHD in cells); details: 24 hrs compound incubation, HIF1a protein by ELISA; for EC50: Rattus norvegicus, H9c2, 24 h, read-out: Inhibition of PHD in cells (pEC50) (converted)
Outline: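 HIF1a stabilization was measured by ELISA on lysates of H9c2 rat cardiomyocytes after 24 h exposure to 11 serial compound concentrations, expressed relative to the desferrioxamine maximum. Curve fits gave EC50. EC50pos denotes the concentration producing half the desferrioxamine maximal response.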

[2] = target: PHD2 enzyme (residues 181-417) (Homo sapiens (Human), UniProt Q9GZT9); test: Inhibition of PHD enzyme (LC/MS peptide hydroxylation assay); format: biochemical; details: PHD2 (residues 181-417) 5 nM, 60 min pre-incubation; -log(IC50), IC50 molar
Chain of PHD2 enzyme (residues 181-417) (Q9GZT9 181-417): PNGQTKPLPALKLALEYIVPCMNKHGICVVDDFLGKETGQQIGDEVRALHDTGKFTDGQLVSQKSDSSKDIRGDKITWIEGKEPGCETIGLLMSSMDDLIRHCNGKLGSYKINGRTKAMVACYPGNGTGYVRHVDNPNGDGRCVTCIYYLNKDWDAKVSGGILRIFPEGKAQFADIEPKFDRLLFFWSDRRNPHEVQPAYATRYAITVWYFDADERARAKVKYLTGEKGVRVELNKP
Outline: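 Hydroxylated peptide quantified by LC/MS after 60 min turnover of 1 uM biotinylated peptide with 2 uM 2-oxoglutarate and 1 mM ascorbate, stopped by excess tight-binding inhibitor. Beforehand, 5 nM enzyme and compound were preincubated 60 min at RT, pH 7.3 HEPES/KCl/TCEP/FeCl2/BSA buffer. Values as pIC50 (−log molar IC50).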

PHD Inhibition (pIC50) [2] | Compound | EC50 [1] | Inhibition of PHD in cells (pEC50) [1]
8.2 | COCCCNC(=O)c1ccc(-n2ncc(-c3ccc(CC#N)c(F)c3)c2O)nc1 [Example 219, 6-(4-(4-(cyanomethyl)-3-fluorophenyl)-5-hydroxy-1H-pyrazol-1-yl)-N-(3-methoxypropyl)nicotinamide] | 1230 nM | 
7.57 | N#Cc1ccc(-c2cnn(-c3ccc(C(=O)NCC4CCCO4)cn3)c2O)cc1 (stereo not drawn) [Example 153, 6-(4-(4-cyanophenyl)-5-hydroxy-1H-pyrazol-1-yl)-N-((tetrahydrofuran-2-yl)methyl)nicotinamide] | 1380 nM | 
6.94 | N#Cc1ccc(-c2cnn(-c3ccc(C(=O)NC4CCN(CCO)CC4)cn3)c2O)cc1 [Example 85, 6-(4-(4-cyanophenyl)-5-hydroxy-1H-pyrazol-1-yl)-N-(1-(2-hydroxyethyl)piperidin-4-yl)nicotinamide] | 2240 nM | 
7.38 | CC1CC1NC(=O)c1ccc(-n2ncc(-c3ccc(C#N)cc3)c2O)nc1 (stereo not drawn) [Example 262, 6-(4-(4-cyanophenyl)-5-hydroxy-1H-pyrazol-1-yl)-N-(2-methylcyclopropyl)nicotinamide] | 525 nM | 
8.48 | CCN1CCN(C(=O)c2ccc(-n3ncc(-c4cc(F)c(C#N)cc4C)c3O)nc2)C[C@H]1C [Example 395, (R)-4-(1-(5-(4-ethyl-3-methylpiperazine-1-carbonyl)pyridin-2-yl)-5-hydroxy-1H-pyrazol-4-yl)-2-fluoro-5-methylbenzonitrile] | 2630 nM | 
7.31 | N#Cc1ccc(-c2cnn(-c3ccc(C(=O)NCCC4CCOCC4)cn3)c2O)cc1 [Example 174, 6-(4-(4-cyanophenyl)-5-hydroxy-1H-pyrazol-1-yl)-N-(2-(tetrahydro-2H-pyran-4-yl)ethyl)nicotinamide] | 759 nM | 
7.23 | CCOCCCNC(=O)c1ccc(-n2ncc(-c3ccc(C#N)cc3)c2O)nc1 [Example 162, 6-(4-(4-cyanophenyl)-5-hydroxy-1H-pyrazol-1-yl)-N-(3-ethoxypropyl)nicotinamide] | 1150 nM | 
7.48 | CO[C@H]1CC[C@H](NC(=O)c2ccc(-n3ncc(-c4ccc(C#N)cc4)c3O)nc2)CC1 [Example 228, 6-(4-(4-cyanophenyl)-5-hydroxy-1H-pyrazol-1-yl)-N-((1r,4r)-4-methoxycyclohexyl)nicotinamide] |  | 6.59
8.3 | COCC1CCN(C(=O)c2ccc(-n3ncc(-c4ccc(C#N)cc4C)c3O)nc2)C1 (stereo not drawn) [Example 252, 4-(5-hydroxy-1-(5-(3-(methoxymethyl)pyrrolidine-1-carbonyl)pyridin-2-yl)-1H-pyrazol-4-yl)-3-methylbenzonitrile] | 263 nM | 
7.14 | COC[C@@H](NC(=O)c1ccc(-n2ncc(-c3ccc(C#N)cc3C)c2O)nc1)C(C)C [Example 62, (S)-6-(4-(4-cyano-2-methylphenyl)-5-hydroxy-1H-pyrazol-1-yl)-N-(1-methoxy-3-methylbutan-2-yl)nicotinamide] | 182 nM | 
8.48 | COCCCCNC(=O)c1ccc(-n2ncc(-c3ccc(C#N)cc3F)c2O)nc1 [Example 285, 6-(4-(4-cyano-2-fluorophenyl)-5-hydroxy-1H-pyrazol-1-yl)-N-(4-methoxybutyl)nicotinamide] | 933 nM | 
8.45 | COCC[C@@H](C)NC(=O)c1ccc(-n2ncc(-c3ccc(C#N)cc3C)c2O)nc1 [Example 359, (R)-6-(4-(4-cyano-2-methylphenyl)-5-hydroxy-1H-pyrazol-1-yl)-N-(4-methoxybutan-2-yl)nicotinamide] | 537 nM | 
7.43 | COCCCCNC(=O)c1ccc(-n2ncc(-c3ccc(C#N)cc3)c2O)nc1 [Example 235, 6-(4-(4-cyanophenyl)-5-hydroxy-1H-pyrazol-1-yl)-N-(4-methoxybutyl)nicotinamide] | 269 nM | 
8.24 | COCCCNC(=O)c1ccc(-n2ncc(-c3ccc(C#N)c(C)c3C)c2O)nc1 [Example 409, 6-(4-(4-cyano-2,3-dimethylphenyl)-5-hydroxy-1H-pyrazol-1-yl)-N-(3-methoxypropyl)nicotinamide] | 257 nM | 
7.87 | Cc1cc(C#N)ccc1-c1cnn(-c2ccc(C(=O)N(C3CC3)C3CCN(C)CC3)cn2)c1O [Example 420, 6-(4-(4-cyano-2-methylphenyl)-5-hydroxy-1H-pyrazol-1-yl)-N-cyclopropyl-N-(1-methylpiperidin-4-yl)nicotinamide] | 537 nM | 
7.37 | N#Cc1ccc(-c2cnn(-c3ccc(C(=O)NCc4ccccc4)cn3)c2O)cc1 [Example 281, N-benzyl-6-(4-(4-cyanophenyl)-5-hydroxy-1H-pyrazol-1-yl)nicotinamide] | 257 nM | 
7.22 | Cc1cc(C#N)ccc1-c1cnn(-c2ccc(C(=O)NCCC3CCOC3)cn2)c1O (stereo not drawn) [Example 66, 6-(4-(4-cyano-2-methylphenyl)-5-hydroxy-1H-pyrazol-1-yl)-N-(2-(tetrahydrofuran-3-yl)ethyl)nicotinamide] | 120 nM | 
7.5 | COc1cc(-c2cnn(-c3ccc(C(=O)N[C@H]4CC[C@@H](OC)CC4)cn3)c2O)ccn1 [Example 9, 6-(5-hydroxy-4-(2-methoxypyridin-4-yl)-1H-pyrazol-1-yl)-N-((1s,4s)-4-methoxycyclohexyl)nicotinamide] | 525 nM | 
7.16 | CC[C@@H](C)NC(=O)c1ccc(-n2ncc(-c3ccc(C#N)cc3C)c2O)nc1 [Example 58, (R)—N-(sec-butyl)-6-(4-(4-cyano-2-methylphenyl)-5-hydroxy-1H-pyrazol-1-yl)nicotinamide] | 158 nM | 
8.44 | Cc1cc(C#N)ccc1-c1cnn(-c2ccc(C(=O)N3CCN(C)C(C)(C)C3)cn2)c1O [Example 377, 4-(5-hydroxy-1-(5-(3,3,4-trimethylpiperazine-1-carbonyl)pyridin-2-yl)-1H-pyrazol-4-yl)-3-methylbenzonitrile] | 813 nM | 
8.07 | Cc1cc(C#N)c(F)cc1-c1cnn(-c2ccc(C(=O)N3CC4(CN(C)C4)C3)cn2)c1O [Example 343, 2-fluoro-4-(5-hydroxy-1-(5-(6-methyl-2,6-diazaspiro[3.3]heptane-2-carbonyl)pyridin-2-yl)-1H-pyrazol-4-yl)-5-methylbenzonitrile] | 1150 nM | 
7.99 | COCCCNC(=O)c1ccc(-n2ncc(-c3ccc(C#N)cc3C3CC3)c2O)nc1 [Example 300, 6-(4-(4-cyano-2-cyclopropylphenyl)-5-hydroxy-1H-pyrazol-1-yl)-N-(3-methoxypropyl)nicotinamide] | 17.4 nM | 
8.33 | Cc1c(-c2cnn(-c3ccc(C(=O)N4CCCN(C5CC5)CC4)cn3)c2O)ccc(C#N)c1F [Example 323, 4-(1-(5-(4-cyclopropyl-1,4-diazepane-1-carbonyl)pyridin-2-yl)-5-hydroxy-1H-pyrazol-4-yl)-2-fluoro-3-methylbenzonitrile] | 1820 nM | 
7.01 | COc1cc(C#N)ccc1-c1cnn(-c2ccc(C(=O)NCc3ccccc3)cn2)c1O [Example 195, N-benzyl-6-(4-(4-cyano-2-methoxyphenyl)-5-hydroxy-1H-pyrazol-1-yl)nicotinamide] | 2510 nM | 
7.13 | COCC(C)NC(=O)c1ccc(-n2ncc(-c3ccc(C#N)cc3C)c2O)nc1 (stereo not drawn) [Example 136, 6-(4-(4-cyano-2-methylphenyl)-5-hydroxy-1H-pyrazol-1-yl)-N-(1-methoxypropan-2-yl)nicotinamide] | 112 nM | 
7.89 | Cc1cc(C#N)ccc1-c1cnn(-c2ccc(C(=O)N(C)C3CCN(C)C3)cn2)c1O (stereo not drawn) [Example 368, 6-(4-(4-cyano-2-methylphenyl)-5-hydroxy-1H-pyrazol-1-yl)-N-methyl-N-(1-methylpyrrolidin-3-yl)nicotinamide] | 575 nM | 
7.88 | Cc1cc(C#N)c(F)cc1-c1cnn(-c2ccc(C(=O)N3CC(N(C)C)C3)cn2)c1O [Example 394, 4-(1-(5-(3-(dimethylamino)azetidine-1-carbonyl)pyridin-2-yl)-5-hydroxy-1H-pyrazol-4-yl)-2-fluoro-5-methylbenzonitrile] | 2820 nM | 
8.2 | COc1cc(-c2cnn(-c3ccc(C(=O)NCCCn4cccn4)cn3)c2O)ccn1 [Example 43, N-(3-(1H-pyrazol-1-yl)propyl)-6-(5-hydroxy-4-(2-methoxypyridin-4-yl)-1H-pyrazol-1-yl)nicotinamide] | 347 nM | 
7.37 | COCCC(C)(C)NC(=O)c1ccc(-n2ncc(-c3ccc(C#N)cc3)c2O)nc1 [Example 175, 6-(4-(4-cyanophenyl)-5-hydroxy-1H-pyrazol-1-yl)-N-(4-methoxy-2-methylbutan-2-yl)nicotinamide] | 490 nM | 
8.29 | CCN1CCN(C(=O)c2ccc(-n3ncc(-c4cc(F)c(C#N)cc4C)c3O)nc2)CC1 [Example 306, 4-(1-(5-(4-ethylpiperazine-1-carbonyl)pyridin-2-yl)-5-hydroxy-1H-pyrazol-4-yl)-2-fluoro-5-methylbenzonitrile] | 4570 nM | 
